{"source": "patent US9855245B2", "about": "“Methods for improving lipid profiles using atrasentan” (AbbVie Inc., priority 2013, dated 2018)", "test_system": "subjects with type 2 diabetes and nephropathy", "assay": "Example 3: Phase 2b randomized, double-blind, placebo-controlled 8-week study with thoracic bioimpedance", "assay_type": "in vivo, human", "settings": "for Death / Fatal adverse event: N = 16; for UACR Change from Baseline LS Mean (SE) / UACR Geometric Mean Change (Percent): baseline to final on-treatment measurement", "from_the_text": "This study also included measurement of thoracic bioimpedance to assess the potential for thoracic fluid retention with atrasentan.\nAn equal percentage of subjects in all 3 groups experienced an adverse event (81.3%). […] (Table 17).\nA mean decrease of 4 ohms in thoracic bioimpedance, as measured by the ZOE® Fluid Status Monitor, is considered clinically indicative of thoracic fluid overload. Mean thoracic bioimpedance fluctuated in all treatment groups over time, with greater mean changes in the 2 atrasentan groups than in the placebo group.", "data": [{"smiles": "CCCCN(CCCC)C(=O)CN1C[C@H](c2ccc3c(c2)OCO3)[C@@H](C(=O)O)[C@@H]1c1ccc(OC)cc1", "note": "[Atrasentan, (2R,3R,4S)-4-(1,3-benzodioxol-5-yl)-1-[2-(dibutylamino)-2-oxoethyl]-2-(4-methoxyphenyl)pyrrolidine-3-carboxylic acid]", "values": [{"measurement": "Death", "setting": "0.5 mg", "result": "0 N (%) of Subjects"}, {"measurement": "Fatal adverse event", "setting": "0.5 mg", "result": "0 N (%) of Subjects"}, {"measurement": "Cholesterol, Difference (95% CI) from placebo", "setting": "0.5 mg/day", "result": "3.6 (−19.26, 26.46) mg/dL"}, {"measurement": "Cholesterol, Final On-Treatment Visit Mean (SD)", "setting": "0.5 mg/day", "result": "155.1 (40.36) mg/dL"}, {"measurement": "Cholesterol, LS Mean Change from Baseline (SE)", "setting": "0.5 mg/day", "result": "−1.5 (7.05) mg/dL"}, {"measurement": "HDL-C, Difference (95% CI) from placebo", "setting": "0.5 mg/day", "result": "1.9 (−3.54, 7.28) mg/dL"}, {"measurement": "HDL-C, Final On-Treatment Visit Mean (SD)", "setting": "0.5 mg/day", "result": "41.1 (9.92) mg/dL"}, {"measurement": "HDL-C, LS Mean Change from Baseline (SE)", "setting": "0.5 mg/day", "result": "−0.5 (1.67) mg/dL"}, {"measurement": "Had ≧30% Reduction in UACR and No Edema (no moderate or severe adverse event of edema)", "setting": "0.5 mg/day", "result": 31.3, "unit": "%"}, {"measurement": "LDL-C, Difference (95% CI) from placebo", "setting": "0.5 mg/day", "result": "3.1 (−19.49, 25.75) mg/dL"}, {"measurement": "LDL-C, Final On-Treatment Visit Mean (SD)", "setting": "0.5 mg/day", "result": "68.1 (23.33) mg/dL"}, {"measurement": "LDL-C, LS Mean Change from Baseline (SE)", "setting": "0.5 mg/day", "result": "−0.3 (6.67) mg/dL"}, {"measurement": "Percentage of Subjects with ≧30% Reduction in Log-Transformed UACR from Baseline to Final Measurement", "setting": "0.5 mg/day", "result": 50.0, "unit": "%"}, {"measurement": "Percentage of Subjects with ≧40% Reduction in Log-Transformed UACR from Baseline to Final Measurement", "setting": "0.5 mg/day", "result": 31.3, "unit": "%"}, {"measurement": "Percentage of Subjects with ≧50% Reduction in Log-Transformed UACR from Baseline to Final Measurement", "setting": "0.5 mg/day", "result": 18.8, "unit": "%"}, {"measurement": "Triglycerides, Difference (95% CI) from placebo", "setting": "0.5 mg/day", "result": "−29.8 (−14.09, 44.49) mg/dL"}, {"measurement": "Triglycerides, Final On-Treatment Visit Mean (SD)", "setting": "0.5 mg/day", "result": "206.1 (71.42) mg/dL"}, {"measurement": "Triglycerides, LS Mean Change from Baseline (SE)", "setting": "0.5 mg/day", "result": "−2.3 (22.89) mg/dL"}, {"measurement": "geometric mean reduction in UACR, baseline to final on-treatment measurement", "setting": "0.5 mg/day", "result": 27.7, "unit": "%"}, {"measurement": "UACR Between-group Comparison Difference (90% CI)", "setting": "0.5 mg/day vs placebo", "result": "0.04 (−0.28, 0.36)"}, {"measurement": "UACR Change from Baseline LS Mean (SE)", "setting": "0.5 mg/day", "result": "−0.32", "unit": "log mg/g creatinine"}, {"measurement": "UACR Geometric Mean Change (Percent)", "setting": "0.5 mg/day", "result": "−27.69", "unit": "%"}, {"measurement": "Death", "setting": "1.25 mg", "result": "0 N (%) of Subjects"}, {"measurement": "Fatal adverse event", "setting": "1.25 mg", "result": "0 N (%) of Subjects"}, {"measurement": "Cholesterol, Difference (95% CI) from placebo", "setting": "1.25 mg/day", "result": "−14.7 (−37.99, 8.54) mg/dL"}, {"measurement": "Cholesterol, Final On-Treatment Visit Mean (SD)", "setting": "1.25 mg/day", "result": "169.4 (46.02) mg/dL"}, {"measurement": "Cholesterol, LS Mean Change from Baseline (SE)", "setting": "1.25 mg/day", "result": "−19.9 (7.30) mg/dL"}, {"measurement": "HDL-C, Difference (95% CI) from placebo", "setting": "1.25 mg/day", "result": "−1.4 (−6.89, 4.13) mg/dL"}, {"measurement": "HDL-C, Final On-Treatment Visit Mean (SD)", "setting": "1.25 mg/day", "result": "53.9 (22.23) mg/dL"}, {"measurement": "HDL-C, LS Mean Change from Baseline (SE)", "setting": "1.25 mg/day", "result": "−3.7 (1.73) mg/dL"}, {"measurement": "Had ≧30% Reduction in UACR and No Edema (no moderate or severe adverse event of edema)", "setting": "1.25 mg/day", "result": 28.6, "unit": "%"}, {"measurement": "LDL-C, Difference (95% CI) from placebo", "setting": "1.25 mg/day", "result": "−9.8 (−33.30, 13.64) mg/dL"}, {"measurement": "LDL-C, Final On-Treatment Visit Mean (SD)", "setting": "1.25 mg/day", "result": "78.9 (37.01) mg/dL"}, {"measurement": "LDL-C, LS Mean Change from Baseline (SE)", "setting": "1.25 mg/day", "result": "−13.3 (7.21) mg/dL"}, {"measurement": "Percentage of Subjects with ≧30% Reduction in Log-Transformed UACR from Baseline to Final Measurement", "setting": "1.25 mg/day", "result": 42.9, "unit": "%"}, {"measurement": "Percentage of Subjects with ≧40% Reduction in Log-Transformed UACR from Baseline to Final Measurement", "setting": "1.25 mg/day", "result": 42.9, "unit": "%"}, {"measurement": "Percentage of Subjects with ≧50% Reduction in Log-Transformed UACR from Baseline to Final Measurement", "setting": "1.25 mg/day", "result": 35.7, "unit": "%"}, {"measurement": "Triglycerides, Difference (95% CI) from placebo", "setting": "1.25 mg/day", "result": "−31.0 (−108.09, 46.10) mg/dL"}, {"measurement": "Triglycerides, Final On-Treatment Visit Mean (SD)", "setting": "1.25 mg/day", "result": "187.1 (115.90) mg/dL"}, {"measurement": "Triglycerides, LS Mean Change from Baseline (SE)", "setting": "1.25 mg/day", "result": "−3.5 (24.59) mg/dL"}, {"measurement": "geometric mean reduction in UACR, baseline to final on-treatment measurement", "setting": "1.25 mg/day", "result": 37.4, "unit": "%"}, {"measurement": "total cholesterol, LDL-C, and triglycerides compared with placebo", "setting": "1.25 mg/day", "result": "greater mean decreases"}, {"measurement": "UACR Between-group Comparison Difference (90% CI)", "setting": "1.25 mg/day vs placebo", "result": "−0.11 (−0.43, 0.21)"}, {"measurement": "UACR Change from Baseline LS Mean (SE)", "setting": "1.25 mg/day", "result": "−0.47", "unit": "log mg/g creatinine"}, {"measurement": "UACR Geometric Mean Change (Percent)", "setting": "1.25 mg/day", "result": "−37.45", "unit": "%"}]}]}
